From patent US7659400B2, “Radiolabelled benzamide analogues, their synthesis and use in diagnostic imaging” (Washington University, priority 2003, dated 2010)
Substitutions are numbered along the chain they refer to. Several values for one entry are separate records, joined by “and”; a condition that tells them apart may be missing. Equal values may be shown once. Each block holds one compound with its values, some of them ahead of it.

Tests used:
σ1 receptors [1] = biological target: σ1 receptors (Homo sapiens, UniProt Q99720); settings: cited from earlier work
Sequence of σ1 receptors (Homo sapiens, UniProt Q99720) (Q99720 whole entry): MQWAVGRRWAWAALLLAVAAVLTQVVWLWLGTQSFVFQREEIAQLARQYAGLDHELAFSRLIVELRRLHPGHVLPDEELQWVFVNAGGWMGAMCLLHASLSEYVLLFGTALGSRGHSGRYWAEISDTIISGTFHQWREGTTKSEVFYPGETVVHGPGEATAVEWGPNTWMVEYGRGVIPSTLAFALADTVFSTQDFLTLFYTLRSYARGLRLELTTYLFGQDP

σ2 receptors [2] = biological target: σ2 receptors (Homo sapiens, UniProt Q5BJF2); settings: cited from earlier work
Sequence of σ2 receptors (Homo sapiens, UniProt Q5BJF2) (Q5BJF2 whole entry): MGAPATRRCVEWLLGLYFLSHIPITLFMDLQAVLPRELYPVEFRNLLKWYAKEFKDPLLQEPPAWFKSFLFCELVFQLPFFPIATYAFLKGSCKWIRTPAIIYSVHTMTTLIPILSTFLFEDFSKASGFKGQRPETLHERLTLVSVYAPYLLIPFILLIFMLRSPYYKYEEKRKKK

σ2 receptors [3] = biological target: T1, σ2 receptors (Mus musculus, UniProt Q8VD00); experiment: Blocking study: co-injection of 1 mg/kg YUN-143 in EMT-6 tumor-bearing mice; type: in vivo; settings: 1 mg/kg YUN-143, 1 h post-injection
T1 construct: from tissue; host or cells: EMT-6 tumours in female Balb/c mice, in vivo
T1 sequence (Q8VD00 1-176): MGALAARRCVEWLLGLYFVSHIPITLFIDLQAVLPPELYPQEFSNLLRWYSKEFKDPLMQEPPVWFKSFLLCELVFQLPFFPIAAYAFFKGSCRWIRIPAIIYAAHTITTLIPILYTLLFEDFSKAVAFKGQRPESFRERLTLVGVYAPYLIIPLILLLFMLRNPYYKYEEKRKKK
Protocol: These blocking studies in tumor-bearing mice were conducted by co-injecting 1 mg/kg of cold N-(4-fluorobenzyl) piperidinyl-4-(3-bromophenyl)acetamide (YUN-143) with [^18F]3c or [^18F]3f.

EMT-6 tumors = experiment: Biodistribution of 18F-labeled ligands in mice bearing EMT-6 tumors; type: in vivo, female Balb/c mice
Protocol: This example illustrates in vivo evaluation of compounds of the present teachings. All animal experiments were conducted in compliance with the Guidelines for the Care and Use of Research Animals established by Washington University's Animal Studies Committee. EMT-6 mouse mammary adenocarcinoma cells (5×10^5 cells in 100 uL of phosphate-buffered saline) were implanted subcutaneously in the scapular region of female Balb/c mice (˜2-month old and 17-22 g; Charles River Laboratories). […] Groups of at least 4 mice were used for each time point. […] After counting, the percentage of the injected dose per gram of tissue (%ID/g) was calculated. The tumor/organ ratios were calculated by dividing the %ID/g of the tumor by the %ID/g of each organ.

σ2 receptors [4] = biological target: T2, σ2 receptors (Rattus norvegicus, UniProt Q5U3Y7); experiment: σ2 receptor binding assay, [^3H]DTG in the presence of (+)-pentazocine, rat liver membrane homogenates
T2 construct: conducted using rat liver membrane homogenates; from tissue; host or cells: rat liver membrane homogenates
T2 sequence (Q5U3Y7 1-176): T1 sequence (Q8VD00 1-176) with L4V, A5T, L26M, V33L, L71F, A105V, L118I, V127I, S136N, Y169F
Protocol: The incubation time was 120 min at room temperature. […] All other procedures were identical to those described for the σ1 receptor binding assay above.

σ1 receptors [5] = biological target: T3, σ1 receptors (Cavia porcellus, UniProt Q60492); experiment: σ1 receptor binding assay, [^3H](+)-pentazocine, guinea pig brain membrane homogenates; settings: spacer group four carbons (3c) versus two carbons (3a)
T3 sequence (Q60492 whole entry): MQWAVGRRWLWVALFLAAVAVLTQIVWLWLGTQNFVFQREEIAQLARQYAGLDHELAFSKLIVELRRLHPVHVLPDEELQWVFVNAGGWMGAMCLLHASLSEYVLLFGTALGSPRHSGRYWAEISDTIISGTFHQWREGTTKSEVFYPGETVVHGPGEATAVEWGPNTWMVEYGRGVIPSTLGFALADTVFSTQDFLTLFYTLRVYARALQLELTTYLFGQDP
Protocol: (§1) In these assays, the novel sigma ligands were dissolved in N,N-dimethylformamide (DMF), DMSO or ethanol, and then diluted in 50 mM Tris-HCl buffer containing 150 mM NaCl and 100 mM EDTA at pH 7.4 prior to performing the σ1 and σ2 receptor binding assays. […] The samples were harvested and filtered rapidly through a 96-well fiber glass filter plate (millipore, Billerica, Mass.) that had been presoaked with 100 μL of 50 mM Tris-HCl buffer at pH 8.0 for 1 h.
(§2) The Ki values were determine from Scatchard plots.

[6] = Log D calculated using the program ACD/log D; settings: spacer group four carbons (3c) versus two carbons (3a)
σ1 receptors [7] = biological target: T3, σ1 receptors
Protocol: as §1, §2

SMILES: O=C(Cc1cccc(Br)c1)NC1CCN(Cc2ccc(F)cc2)CC1 [YUN-143, N-(4-fluorobenzyl)piperidinyl-4-(3-bromophenyl) acetamide]
affinity for σ1 receptors (in words) (σ1 receptors [1]): high affinity | affinity for σ2 receptors (in words) (σ2 receptors [2]): high affinity

decrease in the tumor:fat ratio on co-injection of YUN-143 (σ2 receptors [3]): ~50% | decrease in the tumor:muscle ratio on co-injection of YUN-143 (σ2 receptors [3]): ~50% | Biodistribution: blood (EMT-6 tumors; 5 min after i.v. injection): 1.82 ± 0.25 %ID/g | Biodistribution: bone (EMT-6 tumors; 5 min after i.v. injection): 2.23 ± 0.56 %ID/g | Biodistribution: brain (EMT-6 tumors; 5 min after i.v. injection): 0.71 ± 0.09 %ID/g | Biodistribution: fat (EMT-6 tumors; 5 min after i.v. injection): 4.13 ± 0.86 %ID/g | Biodistribution: heart (EMT-6 tumors; 5 min after i.v. injection): 5.60 ± 0.45 %ID/g | Biodistribution: kidney (EMT-6 tumors; 5 min after i.v. injection): 19.98 ± 1.66 %ID/g | Biodistribution: liver (EMT-6 tumors; 5 min after i.v. injection): 15.21 ± 2.21 %ID/g | Biodistribution: lung (EMT-6 tumors; 5 min after i.v. injection): 18.47 ± 3.07 %ID/g | Biodistribution: muscle (EMT-6 tumors; 5 min after i.v. injection): 2.50 ± 0.33 %ID/g | Biodistribution: tumor (tumor uptake) (EMT-6 tumors; 5 min after i.v. injection): 3.05 ± 0.43 %ID/g | Biodistribution: blood (EMT-6 tumors; 30 min after i.v. injection): 1.23 ± 0.28 %ID/g | Biodistribution: bone (EMT-6 tumors; 30 min after i.v. injection): 2.01 ± 0.53 %ID/g | Biodistribution: brain (EMT-6 tumors; 30 min after i.v. injection): 0.27 ± 0.04 %ID/g | Biodistribution: fat (EMT-6 tumors; 30 min after i.v. injection): 1.36 ± 0.50 %ID/g | Biodistribution: heart (EMT-6 tumors; 30 min after i.v. injection): 1.54 ± 0.31 %ID/g | Biodistribution: kidney (EMT-6 tumors; 30 min after i.v. injection): 7.73 ± 2.25 %ID/g | Biodistribution: liver (EMT-6 tumors; 30 min after i.v. injection): 10.73 ± 2.98 %ID/g | Biodistribution: lung (EMT-6 tumors; 30 min after i.v. injection): 3.75 ± 0.58 %ID/g | Biodistribution: muscle (EMT-6 tumors; 30 min after i.v. injection): 0.73 ± 0.14 %ID/g | Biodistribution: tumor (tumor uptake) (EMT-6 tumors; 30 min after i.v. injection): 3.11 ± 0.16 %ID/g | Biodistribution: tumor (tumor uptake) (EMT-6 tumors; 60 min (1 h) after i.v. injection): 2.15 %ID/g and 2.15 ± 0.25 %ID/g | Biodistribution: blood (EMT-6 tumors; 60 min after i.v. injection): 0.65 ± 0.09 %ID/g | Biodistribution: bone (EMT-6 tumors; 60 min after i.v. injection): 0.93 ± 0.16 %ID/g | Biodistribution: brain (EMT-6 tumors; 60 min after i.v. injection): 0.14 ± 0.02 %ID/g | Biodistribution: fat (EMT-6 tumors; 60 min after i.v. injection): 0.47 ± 0.07 %ID/g | Biodistribution: heart (EMT-6 tumors; 60 min after i.v. injection): 0.69 ± 0.06 %ID/g | Biodistribution: kidney (EMT-6 tumors; 60 min after i.v. injection): 3.50 ± 0.80 %ID/g | Biodistribution: liver (EMT-6 tumors; 60 min after i.v. injection): 5.57 ± 0.31 %ID/g | Biodistribution: lung (EMT-6 tumors; 60 min after i.v. injection): 1.51 ± 0.13 %ID/g | Biodistribution: muscle (EMT-6 tumors; 60 min after i.v. injection): 0.40 ± 0.07 %ID/g | Biodistribution: tumor (tumor uptake) (EMT-6 tumors; 120 min (2 h) after i.v. injection): 1.15 %ID/g and 1.15 ± 0.23 %ID/g | Biodistribution: blood (EMT-6 tumors; 120 min after i.v. injection): 0.28 ± 0.01 %ID/g | Biodistribution: bone (EMT-6 tumors; 120 min after i.v. injection): 0.59 ± 0.09 %ID/g | Biodistribution: brain (EMT-6 tumors; 120 min after i.v. injection): 0.08 ± 0.01 %ID/g | Biodistribution: fat (EMT-6 tumors; 120 min after i.v. injection): 0.17 ± 0.05 %ID/g | Biodistribution: heart (EMT-6 tumors; 120 min after i.v. injection): 0.39 ± 0.04 %ID/g | Biodistribution: kidney (EMT-6 tumors; 120 min after i.v. injection): 1.34 ± 0.10 %ID/g | Biodistribution: liver (EMT-6 tumors; 120 min after i.v. injection): 2.61 ± 0.69 %ID/g | Biodistribution: lung (EMT-6 tumors; 120 min after i.v. injection): 0.74 ± 0.03 %ID/g | Biodistribution: muscle (EMT-6 tumors; 120 min after i.v. injection): 0.15 ± 0.01 %ID/g | tumor:fat ratio (EMT-6 tumors; 2 h after i.v. injection): ~7 | tumor:muscle ratio (EMT-6 tumors; 2 h after i.v. injection): ~8 | clearance from the blood (in words) (EMT-6 tumors; mouse, in vivo): rapid clearance from the blood
SMILES: COc1cc2c(cc1OC)CN(CCCCNC(=O)c1cc(I)cc(OC)c1OCC[18F])CC2 [[^18F]3f]

σ1:σ2 Ratio (σ2 receptors [4]; ratio of Ki values): 48 | increase in the affinity for σ2 receptors relative to 3a (σ2 receptors [4]; spacer group four carbons (3c) versus two carbons (3a)): 15 fold | increase in the affinity for σ1 receptors relative to 3a (σ1 receptors [5]): 69 fold | increase in the log D value relative to 3a [6]: 0.5 unit | Ki (σ1 receptors [7]): 330 ± 25 nM
SMILES: COc1cc2c(cc1OC)CN(CCCCNC(=O)c1cc(C)ccc1OCCF)CC2 [compound 3c, N-[6,7-dimethoxy-3,4-dihydro-1H-isoquinolin-2-yl-butyl]-2-(2-fluoro-ethoxy)-5-methyl-benzamide]
